Entries after “also recorded” stand apart in the source; their conditions may differ. Like-named read-outs stand apart in the source and are kept apart here.
Key:
[1] = target: T1, PZ (Homo sapiens, UniProt P22891); assay: Binding of soluble lipids to PZ by intrinsic tryptophan fluorescence; conditions: for effect of pre-incubation of PZ with C6PS on affinity of PZ towards the lipid: saturating amount of C6PS; for lower binding affinity to PZ compared to PS and PE: soluble lipids, 5 mM Ca2+; for Kd in 1 mM Ca2+ relative to Kd in 5 mM Ca2+: 1 mM vs 5 mM Ca2+; for binding to PZ with excess EDTA: 5 mM EDTA in the assay buffer
T1 construct: purchased Enzyme Research Laboratories (South Bend, IN, USA)
T1 sequence (P22891 41-400): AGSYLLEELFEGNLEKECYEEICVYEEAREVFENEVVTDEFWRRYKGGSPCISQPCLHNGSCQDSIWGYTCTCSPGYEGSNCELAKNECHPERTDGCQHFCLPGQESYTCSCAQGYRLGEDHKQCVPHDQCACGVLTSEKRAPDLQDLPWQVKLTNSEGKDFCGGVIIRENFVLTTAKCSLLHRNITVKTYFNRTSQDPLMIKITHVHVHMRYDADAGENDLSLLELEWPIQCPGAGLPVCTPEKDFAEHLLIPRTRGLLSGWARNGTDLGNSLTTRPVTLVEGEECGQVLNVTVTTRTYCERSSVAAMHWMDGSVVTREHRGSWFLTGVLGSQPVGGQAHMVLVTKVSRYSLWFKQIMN
Experimental: (§1) PZ intrinsic tryptophan fluorescence as a function of increasing concentration of soluble phospholipid was measured as described in [12] using a FluoroLog spectrofluorometer (Horiba Jobin-Yvon Inc., Edison, NJ) with an excitation wavelength of 285nm (band-pass 4 nm); emission was recorded at 340 nm (band-pass 4 nm). Each experiment was performed below the critical micelle concentration (CMC) of the soluble lipid. The CMC was determined under experimental conditions following pyrene fluorescence as a function of increasing lipid concentration. Apparent dissociation constants for binding of PZ to soluble lipids were obtained by fitting the experimental data to a simple, single-site binding model, using the assumption that [C6PL]free ≈ [C6PL]total

[2] = target: fXa; set-up: method as in PMID 21859710; conditions: soluble lipid; read-out: Kd for binding of fXa; cited from earlier work
[3] = target: T1, PZ; assay: Equilibrium dialysis of soluble C6PS/C6PE binding to PZ; conditions: for Stoichiometry (Average) of lipid binding to PZ / ΔP (difference in phosphate concentration): 250 μM lipid, 5 mM Ca2+; for Stoichiometry (Average) of lipid binding to PZ: PZ 15, 20, 30 μM, calculated from Eq (1); for binding to PZ in equilibrium dialysis without Ca2+: absence of Ca2+ and presence of EDTA in the buffer
Experimental: Experiments were performed using 2.0-ml Teflon dialysis cells (Harvard Apparatus, Holliston, MA) with the two cells separated by a 2000 Da molecular weight cut-off membrane. Both chambers contained equal amount of […], and one chamber contained the appropriate amount of PZ. Both chambers were allowed to equilibrate with each other at room temperature for 24 h while being rotated horizontally at 20 rpm. […] where, n is the stoichiometry of binding, [L] is the concentration of phospholipid added to the chamber, [P] is the protein concentration present in one half of the chamber, and Kd is the binding constant obtained from fluorescence experiments. Total protein concentration, [P], must be large enough to detect a measurable difference in phosphate concentration between the two chambers. In a recent analysis of soluble lipid binding to two non-equivalent sites on fIXa, it was shown that a narrow protein concentration range was sufficient to obtain stoichiometries for each site. […] For each protein concentration, three aliquots were withdrawn and phosphate concentrations were measured.

[4] = Critical micelle concentration by pyrene fluorescence; assay type: physicochemical; conditions: under experimental conditions
Experimental: as §1
Since pyrene is hydrophobic, partitioning into the interior of a micelle is manifested as a sharp increase in the ratio of the intensity of the pyrene emissions at 373 and 383 nm.

[5] = target: human fXa (Homo sapiens, UniProt P00742); assay: FXa inhibition assay: AT-mediated inhibition of fXa amidolytic activity (S2765); assay type: biochemical; conditions: 40 nM PZ, 3 μM AT, no membrane
human fXa, sequence (P00742 41-179 limits assumed): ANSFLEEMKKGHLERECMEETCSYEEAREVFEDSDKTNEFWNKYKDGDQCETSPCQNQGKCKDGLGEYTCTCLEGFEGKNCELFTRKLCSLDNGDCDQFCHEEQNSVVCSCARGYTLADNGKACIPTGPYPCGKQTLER
human fXa, sequence (P00742 235-488 limits assumed): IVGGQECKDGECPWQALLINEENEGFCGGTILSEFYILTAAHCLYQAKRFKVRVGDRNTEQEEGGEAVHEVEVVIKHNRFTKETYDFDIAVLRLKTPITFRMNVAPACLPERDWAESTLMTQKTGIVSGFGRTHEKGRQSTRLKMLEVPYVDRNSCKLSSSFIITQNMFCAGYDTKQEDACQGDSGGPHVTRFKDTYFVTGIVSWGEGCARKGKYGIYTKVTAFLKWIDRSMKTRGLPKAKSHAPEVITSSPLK
Experimental: Amidolytic activity of human fXa was measured in an assay mixtures containing 5 nM fXa, 3 μM AT, 50 μM phospholipid membrane (DOPS:DOPC, DOPE:DOPC, and only DOPC) and 40 nM PZ in buffer (50 mM Tris, 175 mM NaCl, 0.6% PEG, 5 mM CaCl2, pH 7.4 using the substrate S2765 according to the method described in [31]. Briefly, mixtures (150 μl) containing fXa in appropriate buffer were incubated with or without PZ and with or without membrane at 37°C in the wells of a microtiter plate for 5 mins before adding AT to that. 1 mM of substrate S2765 was added then and initial rate of substrate cleavage was determined by measuring the absorbance at 405 nm using the plate reader (Molecular Devices, CA, USA). Factor Xa activity was determined by comparing the initial rate of substrate cleavage with a standard curve produced with various concentrations of factor Xa in the same buffer conditions.

[6] = 150 nM PZ, 5 mM CaCl2, pH 7.5, 25° C, no pre-incubation lipid, single-site binding model, read-out: apparent Kd for binding to PZ
[7] = 1 mM Ca2+, read-out: binding Kd to PZ in presence of 1 mM Ca2+

For `CCCCCC(=O)OC[C@H](COP(=O)(O)OCC(O)CO)OC(=O)CCCCC` (stereo partly shown) [C6PG], the Kd [1, 6] was 131 ± 39 µM, the “effect of pre-incubation of PZ with C6PS on affinity of PZ towards the lipid” value (shortened to “effect of pre-incubation of PZ with C6PS”) [1] was “did not alter the affinity; also recorded: did not enhance the affinity” and the “lower binding affinity to PZ compared to PS and PE” value [1] was ~ 3 fold.
For `CCCCCC(=O)OC[C@H](COP(=O)([O-])OCC[N+](C)(C)C)OC(=O)CCCCC` [C6PC], the Kd [1, 6] was 129 ± 32 µM, the “effect of pre-incubation of PZ with C6PS” value [1] was “did not alter the affinity; also recorded: did not enhance the affinity” and the “lower binding affinity to PZ compared to PS and PE” value [1] was ~ 3 fold.
With `CCCCCC(=O)OC[C@H](COP(=O)(O)OC[C@H](N)C(=O)O)OC(=O)CCCCC` [C6PS, 1,2-dicaproyl-sn-glycero-3-phospho-L-serine] the Kd [1, 6] was 47.7 ± 10.7 µM, the Kd [1, 7] was 165 µM and the “Kd in 1 mM Ca2+ relative to Kd in 5 mM Ca2+” value [1] was “about 3.5 fold”. For the same compound, the “binding to PZ with excess EDTA” value [1] was “did not observe any binding”, the Kd [2] was 86 µM and the “Stoichiometry (Average) of lipid binding to PZ” value [3] was 2.0 (1.96 ± 0.1). For the same compound, the “ΔP (difference in phosphate concentration)” value ([3]; [PZ] 15 μM) was 27.6 ± 0.2, the “ΔP (difference in phosphate concentration)” value ([3]; [PZ] 20 μM) was 32.3 ± 0.09 and the “ΔP (difference in phosphate concentration)” value ([3]; [PZ] 30 μM) was 45.3 ± 0.1. For the same compound, the “binding to PZ in equilibrium dialysis without Ca2+” value [3] was “did not detect any binding” and the “critical micelle concentration (CMC)” value [4] was 950 µM.
`CCCCCC(=O)OC[C@H](COP(=O)(O)OC[C@@H](N)C(=O)O)OC(=O)CCCCC` [C6(D)PS] showed a Kd [1, 6] of 911 ± 300 µM.
In the case of `CCCCCC(=O)OC[C@H](COP(=O)(O)O)OC(=O)CCCCC` [C6PA], the Kd [1, 6] is reported as 165 ± 25 µM, the “effect of pre-incubation of PZ with C6PS” value [1] is reported as “did not alter the affinity; also recorded: did not enhance the affinity” and the “lower binding affinity to PZ compared to PS and PE” value [1] is reported as ~ 3 fold.
In the case of “PZ: human Protein Z, 62 kDa vitamin K-dependent cofactor”, the “effect of inclusion of PZ on AT inhibition of fXa” value [5] is reported as “essentially no effect”.
Work on `CCCCCC(=O)OC[C@H](COP(=O)(O)OCCN)OC(=O)CCCCC` [C6PE, 1,2-dicaproyl-sn-glycero-3-phospho-L-ethanolamine] yielded a Kd ([1]; 150 nM PZ, 5 mM CaCl2, pH 7.5, 25° C, no pre-incubation lipid, single-site binding model, listed as PE, read-out: apparent Kd for binding to PZ) of roughly 48 µM, a Kd [1, 6] of 47.6 ± 8.2 µM and a Kd [1, 7] of 172 µM. The “Kd in 1 mM Ca2+ relative to Kd in 5 mM Ca2+” value [1] was “about 3.5 fold”, the “binding to PZ with excess EDTA” value [1] was “did not observe any binding” and the Kd [2] was 91 µM. For the same compound, the “Stoichiometry (Average) of lipid binding to PZ” value [3] was 2.0 (1.93 ± 0.2), the “ΔP (difference in phosphate concentration)” value ([3]; [PZ] 15 μM) was 28.9 ± 0.08 and the “ΔP (difference in phosphate concentration)” value ([3]; [PZ] 20 μM) was 31.8 ± 0.2. For the same compound, the “ΔP (difference in phosphate concentration)” value ([3]; [PZ] 30 μM) was 42.8 ± 0.6, the “binding to PZ in equilibrium dialysis without Ca2+” value [3] was “did not detect any binding” and the “critical micelle concentration (CMC)” value [4] was 1200 µM.
